Measured values: patent publication US20250275991A1, “ORAL COMPLEMENT FACTOR D INHIBITORS” (BioCryst Pharmaceuticals, Inc, priority 2019, published 2025)

Biological target: Factor D (Homo sapiens, UniProt P00746)
Experiment: Factor D esterolytic assay
Type: biochemical
Settings: substrate Z-Lys-SBzl 1.29 mM, 100 mM HEPES, 500 mM NaCl, pH 7.5, 10% DMSO, tested a minimum of three times
Procedure: The IC50 value of a compound (i.e., the concentration of the compound that inhibits 50% of the enzymatic activity) was calculated according to the procedure reported in U.S. Pat. No. 6,653,340 B1, e.g., column 74 (incorporated by reference).
Specifically, the compounds were dissolved in a stock solution of DMSO at 10.0 or 100 mM. A portion of this stock solution was added to assay buffer in a final volume of 50 μL. Controls included buffer alone and enzyme solutions to which DMSO was added. Substrate was added to the reaction wells immediately or after incubation at room temperature. The reaction rates were measured spectrophotometrically by the generation of product at 405 nm for 600 sec. Background absorbance at 690 nm was measured and subtracted from the absorbance at 405 nm for each well.
The reaction rate for enzyme alone was compared to the rate of enzyme in the presence of inhibitor and the percent inhibition was calculated as shown below: […]
An established esterolytic assay for the measurement of Factor D activity and inhibition of Factor D activity was used (Kam, C. M.; McRae, B. J.; Harper, J. W.; Niemann, M. A.; Volanakis, J. E.; Powers, J. C. Human complement proteins D, C2, and B Active site mapping with peptide thioester substrates. J Biol. Chem. 1987, 262, 3444-3451). For this assay Z-Lys-SBzl, 1.29 mM (Kim, S.; Narayana, S. V. L; Volanakis, J. E. Mutational analysis of the substrate binding site of human complement Factor D. Biochemistry. 1994, 33, 14393-14399.) was used as the substrate for Factor D ([…]). Hydrolysis of this compound by Factor D liberated a free sulfhydryl group which is then reacted with 5,5′-dithiobis(2nitrobenzoic acid) producing an intense yellow color (Habeeb, A. F. S. A. Reaction of protein sulfhydryl groups with Ellman's Reagent. Methods in Enzymol. 1976, 25, 457-464). The assays were performed in 96 well microtiter plates and rates of hydrolysis were monitored at 405 nm on a Biotek Synergy H1 plate reader. Hydrolysis rates were reported as change in mOD/min. The assay was conducted in 100 mM HEPES, 500 mM NaCl, pH 7.5 containing 10% DMSO in a final volume of 50 μL per well.
An IC50, a compound concentration which inhibits 50% of the enzymatic activity, was calculated. Compounds in the examples were tested a minimum of three times.

Chain of Factor D (P00746 26-253): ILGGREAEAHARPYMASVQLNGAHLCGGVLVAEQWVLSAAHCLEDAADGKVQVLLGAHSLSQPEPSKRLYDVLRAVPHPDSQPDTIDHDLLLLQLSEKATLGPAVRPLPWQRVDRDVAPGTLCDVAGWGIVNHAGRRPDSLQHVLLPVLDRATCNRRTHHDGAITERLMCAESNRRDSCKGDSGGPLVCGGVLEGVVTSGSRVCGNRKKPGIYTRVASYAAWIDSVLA

SMILES	IC50 [nM]
NCc1cc(-c2cc(COc3ccccc3CC(=O)O)cc3ccoc23)co1 [Compound 50e, 2-(2-((7-(5-(aminomethyl)furan-3-yl)benzofuran-5-yl)methoxy)phenyl)acetic acid]	> 10000
NCc1nccc(-c2cc(COc3cc(C(F)(F)F)ccc3CC(=O)O)cc3ccoc23)c1F [Compound 56f, 2-(2-((7-(2-(aminomethyl)-3-fluoropyridin-4-yl)benzofuran-5-yl)methoxy)-4-(trifluoromethyl)phenyl)acetic acid]	< 1000
CCc1ccc(CC(=O)O)c(OCc2cc(-c3ccnc(CN)c3F)c3oc(F)cc3c2)c1 [Compound 59i, 2-(2-((7-(2-(aminomethyl)-3-fluoropyridin-4-yl)-2-fluorobenzofuran-5-yl)methoxy)-4-ethylphenyl)acetic acid]	< 1000
NCc1cccc(-c2cc(C(CC(=O)O)Oc3ccccc3CC(=O)O)cc3ccoc23)c1 (stereo not drawn) [Compound 62g, 3-(7-(3-(aminomethyl)phenyl)benzofuran-5-yl)-3-(2-(carboxymethyl)phenoxy)propanoic acid]	< 1000
NCc1ccn(-c2cc(COc3ccccc3CC(=O)O)cc3ccoc23)c1 [Compound 63f, 2-(2-((7-(3-(aminomethyl)-1H-pyrrol-1-yl)benzofuran-5-yl)methoxy)phenyl)acetic acid]	1000 to 10000
NCc1cccc(-c2cc(COc3ccccc3CC(=O)O)c(OCC(=O)O)c3ccoc23)c1 [Compound 65g, lithium 2-((7-(3-(aminomethyl)phenyl)-5-((2-(carboxymethyl)phenoxy)methyl)benzofuran-4-yl)oxy)acetate]	< 1000
NCc1cccc(-c2cc(COc3ccccc3CC(=O)O)c(OCC3CCCO3)c3ccoc23)c1 (stereo not drawn) [Compound 69g, 2-(2-((7-(3-(aminomethyl)phenyl)-4-((tetrahydrofuran-2-yl)methoxy)benzofuran-5-yl)methoxy)phenyl)acetic acid]	< 1000
NCc1cccc(-c2cc(C(=O)Nc3ccccc3CC(=O)O)cc3c2ccn3-c2ccccc2)c1 [Compound 71e, 2-(2-(4-(3-(aminomethyl)phenyl)-1-phenyl-1H-indole-6-carboxamido)phenyl)acetic acid]	< 1000
NCc1cc(-c2cc(COc3ccc(F)cc3CC(=O)O)cc3cc(F)oc23)ccn1 [Compound 73c, 2-(2-((7-(2-(aminomethyl)pyridin-4-yl)-2-fluorobenzofuran-5-yl)methoxy)-5-fluorophenyl)acetic acid]	< 1000
CC(=O)c1ccc(CC(=O)O)c(OCc2cc(-c3ccnc(CN)c3)c3oc(F)cc3c2)c1 [Compound 74d, 2-(4-acetyl-2-((7-(2-(aminomethyl)pyridin-4-yl)-2-fluorobenzofuran-5-yl)methoxy)phenyl)acetic acid]	< 1000
CC(=O)c1ccc(CC(=O)O)c(OCc2cc(-c3ccnc(CN)c3F)c3oc(F)cc3c2)c1 [Compound 75d, 2-(4-acetyl-2-((7-(2-(aminomethyl)-3-fluoropyridin-4-yl)-2-fluorobenzofuran-5-yl)methoxy)phenyl)acetic acid]	< 1000
CC(=O)c1ccc(CC(=O)O)c(OCc2cc(-c3cccc(CN)c3F)c3oc(F)cc3c2)c1 [Compound 76e, 2-(4-acetyl-2-((7-(3-(aminomethyl)-2-fluorophenyl)-2-fluorobenzofuran-5-yl)methoxy)phenyl)acetic acid]	< 1000

Continued, values first:

IC50 [nM]	SMILES
< 1000	NCc1cccc(-c2cc(COc3ccccc3CC(=O)O)cc3c(F)coc23)c1 [Compound 44d, 2-(2-((7-(3-(aminomethyl)phenyl)-3-fluorobenzofuran-5-yl)methoxy)phenyl)acetic acid]
< 1000	NCc1cccc(-c2cc(COc3ccccc3CC(=O)O)cc3c(F)coc23)c1F [Compound 45b, 2-(2-((7-(3-(aminomethyl)-2-fluorophenyl)-3-fluorobenzofuran-5-yl)methoxy)phenyl)acetic acid]
< 1000	NCc1nccc(-c2cc(COc3ccccc3CC(=O)O)cc3c(F)coc23)c1F [Compound 46d, 2-(2-((7-(2-(aminomethyl)-3-fluoropyridin-4-yl)-3-fluorobenzofuran-5-yl)methoxy)phenyl)acetic acid]
< 1000	NCc1cc(-c2cc(COc3ccccc3CC(=O)O)cc3c(F)coc23)ccn1 [Compound 47c, 2-(2-((7-(2-(aminomethyl)pyridin-4-yl)-3-fluorobenzofuran-5-yl)methoxy)phenyl)acetic acid]
< 1000	CC(=O)c1ccc(CC(=O)O)c(OCc2cc(-c3cccc(CN)c3)c3occc3c2F)c1 [Compound 48g, 2-(4-acetyl-2-((7-(3-(aminomethyl)phenyl)-4-fluorobenzofuran-5-yl)methoxy)phenyl)acetic acid]
< 1000	Cc1ccc(CC(=O)O)c(OCc2cc(-c3cccc(CN)c3)c3occ(F)c3c2)c1 [Compound 49d, 2-(2-((7-(3-(aminomethyl)phenyl)-3-fluorobenzofuran-5-yl)methoxy)-4-methylphenyl)acetic acid]
< 1000	NCc1cccc(-c2cc(COc3cc(C(F)(F)F)ccc3CC(=O)O)cc3cc(F)oc23)c1 [Compound 53d, 2-(2-((7-(3-(aminomethyl)phenyl)-2-fluorobenzofuran-5-yl)methoxy)-4-(trifluoromethyl)phenyl)acetic acid]
< 1000	NCc1cc(-c2cc(COc3cc(C(F)(F)F)ccc3CC(=O)O)cc3ccoc23)ccn1 [Compound 57b, 2-(2-((7-(2-(aminomethyl)pyridin-4-yl)benzofuran-5-yl)methoxy)-4-(trifluoromethyl)phenyl)acetic acid]
< 1000	NCc1cccc(-c2cc(COc3cc(C(F)(F)F)ccc3CC(=O)O)cc3ccoc23)c1F [Compound 58b, 2-(2-((7-(3-(aminomethyl)-2-fluorophenyl)benzofuran-5-yl)methoxy)-4-(trifluoromethyl)phenyl)acetic acid]
< 1000	CC(=O)c1ccc(CC(=O)O)c(OCc2cc(-c3cccc(CN)c3)c3oc(F)cc3c2)c1 [Compound 64h, 2-(4-acetyl-2-((7-(3-(aminomethyl)phenyl)-2-fluorobenzofuran-5-yl)methoxy)phenyl)acetic acid]
< 1000	CC(C)Oc1c(COc2ccccc2CC(=O)O)cc(-c2cccc(CN)c2)c2occc12 [Compound 66f, 2-(2-((7-(3-(aminomethyl)phenyl)-4-isopropoxybenzofuran-5-yl)methoxy)phenyl)acetic acid]
< 1000	COc1c(COc2ccccc2CC(=O)O)cc(-c2cccc(CN)c2)c2occc12 [Compound 67f, 2-(2-((7-(3-(aminomethyl)phenyl)-4-methoxybenzofuran-5-yl)methoxy)phenyl)acetic acid]
< 1000	NCc1cccc(-c2cc(COc3ccccc3CC(=O)O)c(C3CC3)c3ccoc23)c1 [Compound 68g, 2-(2-((7-(3-(aminomethyl)phenyl)-4-cyclopropylbenzofuran-5-yl)methoxy)phenyl)acetic acid]
< 1000	CC(C)C(=O)Nc1ccc(CC(=O)O)c(OCc2cc(-c3cccc(CN)c3)c3occc3c2)c1 [Compound 70f]
< 1000	CC(O)c1ccc(CC(=O)O)c(OCc2cc(-c3cccc(CN)c3)c3occc3c2)c1 (stereo not drawn) [Compound 72e, 2-(2-((7-(3-(aminomethyl)phenyl)benzofuran-5-yl)methoxy)-4-(1-hydroxyethyl)phenyl)acetic acid]
